Source: publication PMC11085077, “Designing Antitrypanosomal and Antileishmanial BODIPY Derivatives: A Computational and In Vitro Assessment” (Molecules, 2024)
Several values for one entry are separate records, joined by “and”; a condition that tells them apart may be missing. Equal entries are not always repeated.

Legend:
[1] = test system: T. brucei BSF; assay: Antitrypanosomal activity, alamarBlue assay; format: cell-based, Trypanosoma brucei; conditions: for Selectivity Index (SI) T. brucei: SI = IC50 MRC-5/IC50 parasite; for IC50: bloodstream form, 72 h incubation, alamarBlue, error reported as σ; for antitrypanosomal activity (in words): classification used for docking analysis
Experimental: The in vitro antitrypanosomal and antileishmanial activity of the BODIPY derivatives were evaluated on the bloodstream form (BSF) of T. brucei and the promastigote form of L. major parasites. The toxicity of the compounds was determined after 72 h of incubation using the alamarBlue assay (for T. brucei) and the MTT assay (for L. major). The cytotoxicity of the compounds on a healthy human cell line (human lung fibroblast, MRC-5) was also determined after 72 h of incubation using the alamarBlue assay. The data were expressed as the half maximal inhibitory concentration (IC50). The selectivity index (SI) of each derivative was calculated by dividing the IC50 of MRC-5 cells into the IC50 of T. brucei or L. major.
T. brucei (Lister 427, antigenic type MiTat 1.2, clone 221a, bloodstream forms, “single marker” S427 (S16)) were cultured at 37 °C, 5% CO2 in HMI-9 medium supplemented with 10% heat-inactivated fetal bovine serum (hiFBS, Invitrogen, Carlsbad, CA, USA), as previously described.
The antitrypanosomal activity of the BODIPY derivatives was determined by the alamarBlue® assay (ThermoFisher Scientific, Waltham, MA, USA). The stock solutions of the compounds were prepared in DMSO and the final DMSO percentage in each well was adjusted to be less than 1%. A total of 2 × 10^4 parasites per mL were incubated at 37 °C, 5% CO2 in 96-well plates (50 μL/well) alone or in the presence of an increasing concentration of compounds for 72 h. A total of 20 μL of resazurin solution (110 ng/mL) was then added to each well, and the parasites were incubated for 4 h at 37 °C. Finally, cells were lysed with 50 μL per well of SDS 3%. The plate was incubated at 37 °C for an extra hour and then, fluorescence intensity was measured with an Infinite F200 plate reader (Tecan Austria, GmbH, Grödig, Austria), exciting at 550 nm and recording the emission at 590 nm. The results are expressed as the concentration of a compound that reduces cell growth by 50% versus untreated control cells (IC50). Data are presented as the average of at least three independent measurements, all conducted in triplicate conditions.

[2] = test system: L. major promastigotes; assay: Antileishmanial activity, MTT-based assay; format: cell-based, Leishmania major; conditions: for Selectivity Index (SI) L. major: SI = IC50 MRC-5/IC50 parasite; for IC50: promastigotes, 72 h incubation, MTT, error reported as σ; for antileishmanial activity (in words): classification used for docking analysis
Experimental: The in vitro antitrypanosomal and antileishmanial activity of the BODIPY derivatives were evaluated on the bloodstream form (BSF) of T. brucei and the promastigote form of L. major parasites. The toxicity of the compounds was determined after 72 h of incubation using the alamarBlue assay (for T. brucei) and the MTT assay (for L. major). The cytotoxicity of the compounds on a healthy human cell line (human lung fibroblast, MRC-5) was also determined after 72 h of incubation using the alamarBlue assay. The data were expressed as the half maximal inhibitory concentration (IC50). The selectivity index (SI) of each derivative was calculated by dividing the IC50 of MRC-5 cells into the IC50 of T. brucei or L. major. L. major (MHOM/IL/80/Friedlin) promastigotes were cultured at 28 °C, 5% CO2 in modified RPMI-1640 medium (Invitrogen, Carlsbad, CA, USA) supplemented with 10% hiFBS [49]. Parasites were maintained in culture in their […] growth phase (below 2 million parasites per mL for T. brucei and 10 million parasites per mL for L. major). The antileishmanial activity of the BODIPY derivatives was assessed using an MTT-based assay (Sigma-Aldrich, St. Louis, MO, USA). The stock solutions of the compounds were prepared in DMSO and the final DMSO percentage in each well was adjusted to be less than 1%. A total of 4 × 10^6 parasites per mL were incubated at 28 °C in 96-well plates (50 μL/well) alone or in the presence of an increasing concentration of compounds DMSO for 72 h. A total of 10 μL of MTT (5 mg/mL) were added to each well and parasites were incubated for 4 h at 28 °C. Finally, cells were lysed with 50 μL/well of 20% SDS. The plate was incubated at 37 °C for an extra hour and then, absorbance was measured at the Infinite F200 plate reader (TECAN Austria, GmbH, Grödig, Austria) at a wavelength of 540 nm. The IC50 was calculated as described above. Data are presented as the average of at least three independent measurements, all conducted in triplicate conditions.

[3] = test system: MRC-5 cell line (human lung fibroblast); assay: Cytotoxicity, alamarBlue assay; format: cell-based; conditions: healthy human lung fibroblasts, 72 h incubation, error reported as σ
Experimental: The in vitro antitrypanosomal and antileishmanial activity of the BODIPY derivatives were evaluated on the bloodstream form (BSF) of T. brucei and the promastigote form of L. major parasites. The toxicity of the compounds was determined after 72 h of incubation using the alamarBlue assay (for T. brucei) and the MTT assay (for L. major). The cytotoxicity of the compounds on a healthy human cell line (human lung fibroblast, MRC-5) was also determined after 72 h of incubation using the alamarBlue assay. The data were expressed as the half maximal inhibitory concentration (IC50). The selectivity index (SI) of each derivative was calculated by dividing the IC50 of MRC-5 cells into the IC50 of T. brucei or L. major. MRC-5 cell line (human lung fibroblast) was grown in a monolayer at 37 °C, 5% CO2 in DMEM medium (1 g/L glucose) supplemented with 10% hiFBS, 100 U/mL penicillin, […] and 2 mM L-glutamine. Cytotoxicity was measured in MRC-5 through alamarBlue® assay (ThermoFisher Scientific). The stock solutions of the compounds were prepared in DMSO and the final DMSO percentage in each well was adjusted to be less than 1%. A total of 5 × 10^3 cells per mL were seeded in 96-well plates (100 μL/well) with 24 h of incubation time before compound addition at 37 °C, 5% CO2. Then, the compounds were added at increasing concentrations (from 0 to 100 μM) and the plates were incubated for 72 h. A total of 20 μL of resazurin solution (110 ng/mL) was added to each well and cells were incubated for 4 h. Then, cells were lysed with 50 μL/well of 3% SDS. The plate was incubated at 37 °C for an extra hour and then, the fluorescence intensity was measured at the Infinite F200 plate reader (TECAN Austria, GmbH), exciting at 550 nm and recording the emission at 590 nm. The results are expressed as the concentration of a compound that reduces cell growth by 50% versus untreated control cells (IC50). Data are presented as the average of at least three independent measurements, all conducted in triplicate conditions.

SMILES | Selectivity Index (SI) T. brucei [1] | IC50 [1] | Selectivity Index (SI) L. major [2] | IC50 [2] | IC50 [3] | antileishmanial activity (in words) [2] | antitrypanosomal activity (in words) [1]
CC1=CC(C)=[N+]2C1=C(c1ccccc1)c1c(C)cc(C)n1[B-]2(F)F [Compound 1a] | 1.76 | 38.2 ± 7.29 µM | 3.42 | 19.7 ± 3.94 µM | 67.2 ± 4.39 µM |  | 
CC1=CC(C)=[N+]2C1=C(c1ccc(N(C)C)c3ccccc13)c1c(C)cc(C)n1[B-]2(F)F [Compound 1b] | 4.21 | 18.2 ± 3.63 µM | 16 and 15.93 | 4.84 ± 1.56 µM | 76.8 ± 5.33 µM | present antileishmanial activity | 
CC1=CC(C)=[N+]2C1=C(c1c3ccccc3cc3ccccc13)c1c(C)cc(C)n1[B-]2(F)F [Compound 1c] | 1.07 | 77.1 ± 2.98 µM | 18 | 5.41 ± 0.43 µM | 82.14 ± 0.03 µM | present antileishmanial activity | 
CC1=CC(C)=[N+]2C1=C(c1ccc(N(c3ccccc3)c3ccccc3)cc1)c1c(C)cc(C)n1[B-]2(F)F [Compound 1d] | 1.87 | 48.8 ± 3.29 µM | <0.91 | > 100 µM | 91.3 ± 6.31 µM |  | 
CCn1c2ccccc2c2cc(C3=C4C(C)=CC(C)=[N+]4[B-](F)(F)n4c(C)cc(C)c43)ccc21 [Compound 1e] | 4.77 | 18.7 ± 2.67 µM | <0.89 | > 100 µM | 88.9 ± 3.82 µM |  | 
CC1=CC(C)=[N+]2C1=C(c1cccs1)c1c(C)cc(C)n1[B-]2(F)F [Compound 1f] | 1.57 | 36.9 ± 7.43 µM | 0.90 | 64.5 ± 8.43 µM | 58 ± 4.76 µM |  | 
CC1=CC(C)=[N+]2C1=C(c1nccs1)c1c(C)cc(C)n1[B-]2(F)F [Compound 1g] | 1.49 | 55.7 ± 1.65 µM | <0.83 | > 100 µM | 82.8 ± 1.2 µM |  | 
CC1=CC(C)=[N+]2C1=C(c1ccc3ccccc3n1)c1c(C)cc(C)n1[B-]2(F)F [Compound 1h] | 1.24 | 77.4 ± 3.46 µM | <0.96 | > 100 µM | 95.6 ± 3.45 µM |  | 
CC1=CC(C)=[N+]2C1=C(c1cc3sccc3s1)c1c(C)cc(C)n1[B-]2(F)F [Compound 1i] | 1.58 | 61.5 ± 10.9 µM | 1.05 | 92.2 ± 10 µM | 96.8 ± 4.5 µM |  | 
CC1=C(C=O)C(C)=[N+]2C1=C(c1ccccc1)c1c(C)cc(C)n1[B-]2(F)F [Compound 2a] | 1.22 | 74.7 ± 6.93 µM | <0.91 | > 100 µM | 91.33 ± 0.66 µM |  | 
CC1=CC(C)=[N+]2C1=C(c1ccc(N(C)C)c3ccccc13)c1c(C)c(C=O)c(C)n1[B-]2(F)F [Compound 2b] | 24 and 24.34 | 2.84 ± 0.04 µM | 4.39 | 15.8 ± 1.31 µM | 69.1 ± 4.9 µM | present antileishmanial activity | present antitrypanosomal activity
CC1=C(C=O)C(C)=[N+]2C1=C(c1c3ccccc3cc3ccccc13)c1c(C)cc(C)n1[B-]2(F)F [Compound 2c] | 11 and 10.84 | 6.17 ± 2.35 µM | 6.47 | 10.3 ± 1.59 µM | 66.9 ± 7.65 µM | present antileishmanial activity | present antitrypanosomal activity
CC1=C(C=O)C(C)=[N+]2C1=C(c1ccc(N(c3ccccc3)c3ccccc3)cc1)c1c(C)cc(C)n1[B-]2(F)F [Compound 2d] | 3.56 | 22.7 ± 1.88 µM | <0.81 | > 100 µM | 81.1 ± 3.9 µM |  | 
CCn1c2ccccc2c2cc(C3=C4C(C)=C(C=O)C(C)=[N+]4[B-](F)(F)n4c(C)cc(C)c43)ccc21 [Compound 2e] | 5.89 | 15.2 ± 0.86 µM | 4.33 | 20.7 ± 1.79 µM | 89.7 ± 9.08 µM |  | 
CC1=C(C=O)C(C)=[N+]2C1=C(c1cccs1)c1c(C)cc(C)n1[B-]2(F)F [Compound 2f] | 6.54 | 12.4 ± 4.02 µM | 4.10 | 19.7 ± 3.21 µM | 80.9 ± 1.06 µM | does not present antileishmanial activity | present antitrypanosomal activity
